The subject of the test is HER2. Briefly: HER2 degradation assay with BT-474 cell line (Example 12, FACS). The format is cell-based. The note with it: Homo sapiens. From the text:
HER2 Degradation Assay with BT-474 Cell Line
HER2 has emerged as a key target for anticancer drugs due to its intrinsic involvement in the phosphatidylinositol-3-kinase-Akt/protein kinase B (PI3K-Akt) and the mitogen-activated protein kinase (MAPK) pathways, both of which suppress apoptosis and promote tumor cell survival, gene transcription, angiogenesis, cellular proliferation, migration, mitosis, and differentiation. The degradation of HER2 is a measure of efficacy of anticancer therapeutics that target Hsp90. Accordingly, the SDC-TRAP molecules of the invention that comprise a binding moiety that binds Hsp90 were tested in the following HER2 degradation assay.
BT-474 cells (human breast cancer cell line ATCC HTB-20) were obtained from ATCC and seeded into 12-well tissue culture plates at 0.2×10^6/1.8 mL/well. […] Each test compound was titrated in 4-fold dilutions from 5 μM to 78 nM with DMSO and 200 μL of the titration was added to each well of the cell plate. The DMSO final concentration was 0.2%. Cells were incubated overnight at 37° C. in 5% CO2.
Media was decanted from the plate, cells were washed 1× in PBS. 400 μL trypsin (EDTA) per well was added, and the cells were incubated for 2 to 3 minutes. Cells were collected into FACS tubes containing 1 ml culture medium to neutralize the trypsin and were centrifuged for 5 minutes at 1200 rpm. Supernatant was decanted and the cells were resuspended in 5 μL FITC (anti HER2/nu)/200 μL staining buffer (1×PBS+1% FBS+0.05% Sodium Azide)/tube. Controls were […] IgG isotype control and staining buffer only. Tubes were incubated for 30 minutes in the dark at room temperature. 1 mL staining buffer was added to each tube and the tubes were centrifuged for 6 minutes at 1200 rpm. The supernatant was decanted and 300 μL staining buffer was added to each tube, which was store at 4° C. for FACS (cytometer) analysis. The cytometer readout was normalized and the potency of each compound is evaluated with IC50 calculated with XLfit™ software.

We go through 17 compounds from patent US9956293B2, “Targeted therapeutics” (Madrigal Pharmaceuticals, Inc., priority 2014, dated 2018).

SMILES strings stand for the structures.

As usually defined, the IC50 is the concentration that inhibits the measured activity by half. Lower therefore signals higher potency. Consider `CCNC(=O)c1nnc(-c2cc(C(C)C)c(O)cc2O)n1-c1ccc(C(=O)N(C)CCOC(=O)Nc2cccc3c2CN(C2CCC(=O)NC2=O)C3=O)cc1` (centres unmarked) [SDC-TRAP-0133, 2-(4-(3-(2,4-dihydroxy-5-isopropylphenyl)-5-(ethylcarbamoyl)-4H-1,2,4-triazol-4-yl)-N-methylbenzamido)ethyl(2-(2,6-dioxopiperidin-3-yl)-1-oxoisoindolin-4-yl)carbamate], for which the IC50 (BT-474 cells) is > 10 µM.

Under “BT-474 cells”, `CCNC(=O)c1nnc(-c2cc(C(C)C)c(O)cc2O)n1-c1ccc(CN2CCC(C(=O)N3CCC(n4cc(-c5cnc(N)c(O[C@H](C)c6c(Cl)ccc(F)c6Cl)c5)cn4)CC3)CC2)cc1` [SDC-TRAP-0134, (R)-4-(4-((4-(4-(4-(6-amino-5-(1-(2,6-dichloro-3-fluorophenyl)ethoxy)pyridin-3-yl)-1H-pyrazol-1-yl)piperidine-1-carbonyl)piperidin-1-yl)methyl)phenyl)-5-(2,4-dihydroxy-5-isopropylphenyl)-N-ethyl-4H-1,2,4-triazole-3-carboxamide] yielded an IC50 of 0.077 µM.

Take `CCNC(=O)c1nnc(-c2cc(C(C)C)c(O)cc2O)n1-c1ccc(C(=O)N(C)CCCOC(=O)Nc2cccc3c2CN(C2CCC(=O)NC2=O)C3=O)cc1` (centres unmarked) [SDC-TRAP-0135, 3-(4-(3-(2,4-dihydroxy-5-isopropylphenyl)-5-(ethylcarbamoyl)-4H-1,2,4-triazol-4-yl)-N-methylbenzamido)propyl(2-(2,6-dioxopiperidin-3-yl)-1-oxoisoindolin-4-yl)carbamate]: the IC50 (BT-474 cells) was determined as 9.67 µM.

On to `CCNC(=O)c1nnc(-c2cc(C(C)C)c(O)cc2O)n1-c1ccc(C(=O)N2CCC(COC(=O)Nc3cccc4c3CN(C3CCC(=O)NC3=O)C4=O)CC2)cc1` (centres unmarked) [SDC-TRAP-0136, (1-(4-(3-(2,4-dihydroxy-5-isopropylphenyl)-5-(ethylcarbamoyl)-4H-1,2,4-triazol-4-yl)benzoyl)piperidin-4-yl)methyl (2-(2,6-dioxopiperidin-3-yl)-1-oxoisoindolin-4-yl)carbamate], for which the IC50 (BT-474 cells) is > 5 µM.

Take `CC(C)c1cc(-c2nnc(O)n2-c2ccc3c(ccn3CCC3CCN(C(=O)Cn4cc(F)c(=O)[nH]c4=O)CC3)c2)c(O)cc1O` [SDC-TRAP-0137, 1-(2-(4-(2-(5-(3-(2,4-dihydroxy-5-isopropylphenyl)-5-hydroxy-4H-1,2,4-triazol-4-yl)-1H-indol-1-yl)ethyl)piperidin-1-yl)-2-oxoethyl)-5-fluoropyrimidine-2,4(1H,3H)-dione]: the concentration for half-maximal inhibition (IC50) (BT-474 cells) is > 5 µM.

Consider `CC(C)c1cc(-c2nnc(O)n2-c2ccc(N3CCN(C(=O)N4CCC(n5cc(-c6cnc(N)c(O[C@H](C)c7c(Cl)ccc(F)c7Cl)c6)cn5)CC4)CC3)cc2)c(O)cc1O` [SDC-TRAP-0138, (R)-(4-(4-(6-amino-5-(1-(2,6-dichloro-3-fluorophenyl)ethoxy)pyridin-3-yl)-1H-pyrazol-1-yl)piperidin-1-yl)(4-(4-(3-(2,4-dihydroxy-5-isopropylphenyl)-5-hydroxy-4H-1,2,4-triazol-4-yl)phenyl)piperazin-1-yl)methanone], for which the IC50 (BT-474 cells) was found to be 0.707 µM. This lies in the sub-micromolar range.

With `CCNC(=O)c1nnc(-c2cc(C(C)C)c(O)cc2O)n1-c1ccc(C(=O)N(C)CC(=O)N2CCC(n3cc(-c4cnc(N)c(O[C@H](C)c5c(Cl)ccc(F)c5Cl)c4)cn3)CC2)cc1` [SDC-TRAP-0139, (R)-4-(4-((2-(4-(4-(6-amino-5-(1-(2,6-dichloro-3-fluorophenyl)ethoxy)pyridin-3-yl)-1H-pyrazol-1-yl)piperidin-1-yl)-2-oxoethyl)(methyl)carbamoyl)phenyl)-5-(2,4-dihydroxy-5-isopropylphenyl)-N-ethyl-4H-1,2,4-triazole-3-carboxamide], the IC50 (BT-474 cells) is 1 to 2 µM.

Take `CCNC(=O)c1nnc(-c2cc(C(C)C)c(O)cc2O)n1-c1ccc(C(=O)N2CCC(CCOC(=O)Nc3cccc4c3CN(C3CCC(=O)NC3=O)C4=O)CC2)cc1` (centres unmarked) [SDC-TRAP-0140, 2-(1-(4-(3-(2,4-dihydroxy-5-isopropylphenyl)-5-(ethylcarbamoyl)-4H-1,2,4-triazol-4-yl)benzoyl)piperidin-4-yl)ethyl(2-(2,6-dioxopiperidin-3-yl)-1-oxoisoindolin-4-yl)carbamate]: the IC50 (BT-474 cells) was > 5 µM.

Compound `CCNC(=O)c1nnc(-c2cc(C(C)C)c(O)cc2O)n1-c1ccc(C(=O)N(C)CC(=O)Nc2cccc3c2CN(C2CCC(=O)NC2=O)C3=O)cc1` (centres unmarked) [SDC-TRAP-0147, 5-(2,4-dihydroxy-5-isopropylphenyl)-4-(4-((2-((2-(2,6-dioxopiperidin-3-yl)-1-oxoisoindolin-4-yl)amino)-2-oxoethyl)(methyl)carbamoyl)phenyl)-N-ethyl-4H-1,2,4-triazole-3-carboxamide] showed a 50% inhibitory concentration (IC50) (BT-474 cells) of 4.33 µM.

The compound `CCNC(=O)c1nnc(-c2cc(C(C)C)c(O)cc2O)n1-c1ccc(CN2CCC(C(=O)Nc3cccc4c3CN(C3CCC(=O)NC3=O)C4=O)CC2)cc1` (centres unmarked) [SDC-TRAP-0149, 1-(4-(3-(2,4-dihydroxy-5-isopropylphenyl)-5-(ethylcarbamoyl)-4H-1,2,4-triazol-4-yl)benzyl)-N-(2-(2,6-dioxopiperidin-3-yl)-1-oxoisoindolin-4-yl)piperidine-4-carboxamide] came in with an IC50 (BT-474 cells) of 1.69 µM.

As for `CC(C)c1cc(-c2nnc(O)n2-c2ccc(CN3CCN(C(=O)O[C@H]4CC[C@@]5(C)C(=CC[C@@H]6[C@@H]5CC[C@]5(C)C(c7cccnc7)=CC[C@@H]65)C4)CC3)cc2)c(O)cc1O` [SDC-TRAP-0150, (3S,8R,9S,10R,13S,14S)-10,13-dimethyl-17-(pyridin-3-yl)-2,3,4,7,8,9,10,11,12,13,14,15-dodecahydro-1H-cyclopenta[a]phenanthren-3-yl 4-(4-(3-(2,4-dihydroxy-5-isopropylphenyl)-5-hydroxy-4H-1,2,4-triazol-4-yl)benzyl) piperazine-1-carboxylate], where the note is “BT-474 cells”, 1.41 µM corresponded to half-maximal inhibition (IC50). This IC50 and that of the compound before are within 1.5-fold of each other.

`CC(C)c1cc(-c2nnc(O)n2-c2ccc3c(ccn3CCOCCNC(=O)O[C@H]3CC[C@@]4(C)C(=CC[C@@H]5[C@@H]4CC[C@]4(C)C(c6cccnc6)=CC[C@@H]54)C3)c2)c(O)cc1O` [SDC-TRAP-0151, (3S,8R,9S,10R,13S,14S)-10,13-dimethyl-17-(pyridin-3-yl)-2,3,4,7,8,9,10,11,12,13,14,15-dodecahydro-1H-cyclopenta[a]phenanthren-3-yl (2-(2-(5-(3-(2,4-dihydroxy-5-isopropylphenyl)-5-hydroxy-4H-1,2,4-triazol-4-yl)-1H-indol-1-yl)ethoxy)ethyl)carbamate] had a concentration for half-maximal inhibition (IC50) (BT-474 cells) of 1.19 µM.

For `CC(C)c1cc(-c2nnc(O)n2-c2ccc(CC3CCN(C(=O)O[C@H]4CC[C@@]5(C)C(=CC[C@@H]6[C@@H]5CC[C@]5(C)C(c7cccnc7)=CC[C@@H]65)C4)CC3)cc2)c(O)cc1O` [SDC-TRAP-0153, (3S,8R,9S,10R,13S,14S)-10,13-dimethyl-17-(pyridin-3-yl)-2,3,4,7,8,9,10,11,12,13,14,15-dodecahydro-1H-cyclopenta[a]phenanthren-3-yl 4-(4-(3-(2,4-dihydroxy-5-isopropylphenyl)-5-hydroxy-4H-1,2,4-triazol-4-yl)benzyl) piperidine-1-carboxylate], the IC50 (BT-474 cells) is 6.34 µM.

The compound `CC(C)c1cc(-c2nnc(O)n2-c2ccc3c(c2)cc(CN2CCC(COC(=O)Nc4cccc5c4CN(C4CCC(=O)NC4=O)C5=O)CC2)n3C)c(O)cc1O` (centres unmarked) [SDC-TRAP-0155, (1-((5-(3-(2,4-dihydroxy-5-isopropylphenyl)-5-hydroxy-4H-1,2,4-triazol-4-yl)-1-methyl-1H-indol-2-yl)methyl)piperidin-4-yl)methyl (2-(2,6-dioxopiperidin-3-yl)-1-oxoisoindolin-4-yl)carbamate] gave a concentration for half-maximal inhibition (IC50) (BT-474 cells) of 1.19 µM. Compared with the last compound, the IC50 is about 5.3-fold lower.

The compound `CC(C)c1cc(-c2nnc(O)n2-c2ccc(N3CCN(C(=O)c4ccc(COC(=O)Nc5cccc6c5CN(C5CCC(=O)NC5=O)C6=O)cc4)CC3)cc2)c(O)cc1O` (centres unmarked) [SDC-TRAP-0156, 4-(4-(4-(3-(2,4-Dihydroxy-5-isopropylphenyl)-5-hydroxy-4H-1,2,4-triazol-4-yl)phenyl)piperazine-1-carbonyl)benzyl (2-(2,6-dioxopiperidin-3-yl)-1-oxoisoindolin-4-yl)carbamate] returned an IC50 (BT-474 cells) of 3.5 µM.

Compound `CC(C)c1cc(-c2nnc(O)n2-c2ccc(CN3CCN(C(=O)c4ccc(COC(=O)Nc5cccc6c5CN(C5CCC(=O)NC5=O)C6=O)cc4)CC3)c(F)c2)c(O)cc1O` (centres unmarked) [SDC-TRAP-0157, 4-(4-(4-(3-(2,4-dihydroxy-5-isopropylphenyl)-5-hydroxy-4H-1,2,4-triazol-4-yl)-2-fluorobenzyl)piperazine-1-carbonyl)benzyl (2-(2,6-dioxopiperidin-3-yl)-1-oxoisoindolin-4-yl)carbamate] gave an IC50 (BT-474 cells) of 0.696 µM.

In the case of `CCNC(=O)c1nnc(-c2cc(C(C)C)c(O)cc2O)n1-c1ccc(Oc2ccc(C(=O)NC(Cc3ccccc3)C(=O)Nc3cc(-c4cnoc4-c4cc(OC)c(OC)c(OC)c4)ccc3OC)cc2)cc1` (centres unmarked) [SDC-TRAP-0158, 5-(2,4-dihydroxy-5-isopropylphenyl)-N-ethyl-4-(4-(4-((1-((2-methoxy-5-(5-(3,4,5-trimethoxyphenyl)isoxazol-4-yl)phenyl)amino)-1-oxo-3-phenylpropan-2-yl)carbamoyl)phenoxy)phenyl)-4H-1,2,4-triazole-3-carboxamide], for the setting “BT-474, SDC-TRAPs of the 52nd table”, the IC50 is > 5 µM.
